Assay results as given in US9718772B2, “Crystalline (3Z,5S)-5-(hydroxymethyl)-1-[(2′-methyl-1,1′-biphenyl-4-yl)carbonyl]pyrrolidin-3-one O-methyloxime, and methods of using the same” (ObsEva SA, priority 2014, dated 2017).
“Also recorded” adds a separate entry of the source.

Legend:
Type in all cases: physicochemical
[1] = MB (moisture balance) of the crystalline compound from ethyl acetate; conditions: crystallized from ethyl acetate
Method: Ethyl acetate was added to amorphous (3Z,5S)-5-(hydroxymethyl)-1-[(2′-methyl-1,1′-biphenyl-4-yl)carbonyl]pyrrolidin-3-one O-methyloxime. The suspension was sonicated in ambient bath tor 60 minutes to provide a clear solution that was further sonicated and cooled over 10 minutes. The clear solution was placed in the freezer for 4 days. The solvent was decanted and the solid was washed with hexane, then dried under nitrogen flow for 30 minutes. The resulting solid was analyzed by XRPD and confirmed to be crystalline (3Z,5S)-5-(hydroxymethyl)-1-[(2′-methyl-1,1′-biphenyl-4-yl)carbonyl]pyrrolidin-3-one O-methyloxime. FIGS. 7 and 9 are the DSC and TGA curves, respectively, obtained front testing this sample.

[2] = Solid stress experiments (humidity, temperature, pressure, grinding, milling; XRPD)
Method: Solid stress experiments were conducted on crystalline (3Z,5S)-5-(hydroxymethyl)-1-[(2′-methyl-1,1′-biphenyl-4-yl)carbonyl]pyrrolidin-3-one O-methyloxime and amorphous (3Z,5S)-5-(hydroxymethyl)-1-[(2′-methyl-1,1′-biphenyl-4-yl)carbonyl]pyrrolidin-3-one O-methyloxime and the results shown below in Tables 8 and 9. […] Stressing at 97% RH for the same time caused the material to deliquesce.

[3] = Comparative stability study: slurries stirred in pH 7 phosphate buffer (USP) at 25° C., observation and XRPD; conditions: for XRPD pattern of solids after stirring in pH 7 buffer: stirred 24 hours at 25° C., solids air dried overnight (FIG. 4, FIG. 5)
Method: Slurries of crystalline (3Z,5S)-5-(hydroxymethyl)-1-[(2′-methyl-1,1′-biphenyl-4-yl)carbonyl]pyrrolidin-3-one O-methyloxime and amorphous (3Z,5S)-5-(hydroxymethyl)-1-[(2′-methyl-1,1′-biphenyl-4-yl)carbonyl]pyrrolidin-3-one O-methyloxime were prepared by weighing directly into vials 100 mg of crystalline or amorphous material, About 3 mL of pH 7 phosphate buffer USP was added to each sample. Samples of each of the slurries were stirred in pH 7 phosphate buffer (USP) at 25° C. for 24 hours. At the end of 24 hours, the solvent was removed from the sample by pipetting out and solids allowed to air dry in the fumehood overnight. Solids were then submitted for XRPD analysis. Both the samples first appeared as white powders. Pictures of the samples were taken at time points corresponding to 0.5 min, 15 min, 1 hour, 3 hours and 24 hours after adding the pH 7 phosphate buffer.

[4] = Vacuum-drying of the crystalline compound, XRPD comparison (FIG. 2); conditions: vacuum-drying at about 45° C. for about 65 hours; crystallized from diethyl ether
Method: “After crystallization” means after preparation of the solid and drying at ambient temperature to about 45° C.
23 mg of the solid was then further vacuum-dried at 45° C. for an additional 65 hours. The resulting solid was analyzed by XRPD and confirmed to be the crystalline compound.

[5] = Comparative stability study: slurries stirred in pH 7 phosphate buffer (USP) at 25° C., observation and XRPD; conditions: in pH 7 phosphate buffer at 25° C., T = 5 min
[6] = 75% RH, amorphous starting material
[7] = 10,000 psi, 1 minute, crystallized from Diethyl Ether
[8] = Ether stress, solid in solvent at ambient, 3 days (slurry)

Compound: CO/N=C1/C[C@@H](CO)N(C(=O)c2ccc(-c3ccccc3C)cc2)C1 [(3Z,5S)-5-(hydroxymethyl)-1-[(2′-methyl-1,1′-biphenyl-4-yl)carbonyl]pyrrolidin-3-one O-methyloxime]
- weight gain from 5% RH to 95% RH ([1]; MB (moisture balance)): 3.25% weight gain from 5% RH to 95% RH
- weight loss from 95% RH to 5% RH ([1]; MB (moisture balance)): 1.44% weight loss from 95% RH to 5% RH
- weight loss upon equilibration at 5% RH ([1]; MB (moisture balance)): 0.20% weight loss upon equilibration at 5% RH
- Post MB XRPD ([1]; after moisture balance): Crystalline form and Amorphous
- Habit/Description ([2]; 40° C., 10 days): Rounded chunks
- XRPD Result ([2]; 40° C., 10 days): Amorphous
- Habit/Description ([2]; 40° C./75% RH, 1 day): Oil drops
- XRPD Result ([2]; 1 minute grind (by hand), crystallized from Diethyl Ether): mixture of the crystalline compound and the amorphous compound; also recorded: Crystalline form
- Habit/Description ([2]; 1 minute grind, crystallized from Diethyl Ether): White Solid
- Habit/Description ([2]; 70° C., 1 day): Oil puddle
- Habit/Description ([2]; 70° C., 6 days): Rounded chunks, clear oil drops
- XRPD Result ([2]; 70° C., 6 days): Amorphous
- XRPD Result ([2]; 75% RH, 3 days, crystallized from Ethyl Acetate): remained unchanged; also recorded: Crystalline form
- weight gain ([2]; 75% RH, after 1 day): 2.5% weight gain after 1 day
- weight gain ([2]; 75% RH, after 5 days): 3.7% weight gain after 5 days
- weight gain ([2]; 75% RH, after 12 days): 6.6% weight gain after 12 days
- weight gain ([2]; 75% RH, after 20 days): 2.9% weight gain after 20 days
- Habit/Description [2, 6]: White jagged flakes, chunks, no
- XRPD Result [2, 6]: Amorphous
- Habit/Description ([2]; 97% RH, 3 days, amorphous starting material): Deliquesced
- Habit/Description ([2]; 97% RH, 3 days, crystallized from Ethyl Acetate): Deliquesced
- Habit/Description [2, 7]: White Solid
- XRPD Result [2, 7]: remained in crystalline form
- Habit/Description [2, 8]: White chunks, bits
- XRPD Result [2, 8]: Amorphous
- Habit/Description ([2]; Milling with 10μL toluene, after 10 minutes): Stick gum like solid after 10
- Habit/Description ([2]; Milling with 10μL toluene, by 70 minutes): minutes, sticky film by 70 minutes
- Habit/Description ([2]; Milling with 25 μL water, ~10 minutes): Sticky gum-like solid
- Habit/Description ([2]; Solid wet with ethyl ether, after 1 day at ambient): Chunks, few areas of birefringence
- Habit/Description ([2]; Solid wet with ethyl ether, after 5 days ambient): Chunks, few areas with extinguish
- Observation of sample ([3]; Before adding buffer, listed as Amorphous form): White power
- Observation of sample ([3]; Before adding buffer, listed as Crystalline compound): White powder
- Observation of sample ([3]; in pH 7 phosphate buffer at 25° C., T = 0, listed as Crystalline compound): White powder dispersed
- Observation of sample ([3]; in pH 7 phosphate buffer at 25° C., T = 15 min, listed as Amorphous (3Z,5S)-5-(hydroxymethyl)-1-[(2-methyl-1,1′-biphenyl-4-yl)carbonyl]pyr): opaque sticky material
- Observation of sample ([3]; in pH 7 phosphate buffer at 25° C., T = 15 min, listed as Amorphous form): Opaque sticky round lump
- Observation of sample ([3]; in pH 7 phosphate buffer at 25° C., T = 15 min, listed as Crystalline compound): White powder dispersed
- Observation of sample ([3]; in pH 7 phosphate buffer at 25° C., T = 1 hour, listed as Amorphous form): Opaque sticky round lump
- Observation of sample ([3]; in pH 7 phosphate buffer at 25° C., T = 1 hour, listed as Crystalline compound): White solid round lump,
- Observation of sample ([3]; in pH 7 phosphate buffer at 25° C., T = 1 hour, listed as crystalline (3Z,5S)-5-(hydroxymethyl)-1-[(2′-methyl-1,1-biphenyl-4-yl)carbonyl]p): white sticky material
- Observation of sample ([3]; in pH 7 phosphate buffer at 25° C., T = 3 hours, listed as Amorphous form): Opaque sticky material
- Observation of sample ([3]; in pH 7 phosphate buffer at 25° C., T = 3 hours, listed as Crystalline compound): White sticky material
- Observation of sample ([3]; in pH 7 phosphate buffer at 25° C., T = 24 hours, listed as Amorphous form): Opaque sticky material
- Observation of sample ([3]; in pH 7 phosphate buffer at 25° C., T = 24 hours, listed as Crystalline compound): White sticky material
- XRPD pattern of solids after stirring in pH 7 buffer [3]: peaks consistent with those seen in the powder pattern of crystalline
- XRPD pattern of solids after stirring in pH 7 buffer ([3]; listed as amorphous (3Z,5S)-5-(hydroxymethyl)-1-[(2-methyl-1,1′-biphenyl-4-yl)carbonyl]pyr): presence of amorphous phase
- solid form by XRPD after vacuum-drying [4]: does not change the solid form
- Observation of sample ([5]; listed as Amorphous form): Thick white sticky mass
- Observation of sample ([5]; listed as Crystalline compound): White powder dispersed
